Measurements: patent US8063208B2, “Crystalline forms of (3R,4R)-4-amino-1-[[4-[(3-methoxyphenyl)amino]pyrrolo[2,1-f][1,2,4]triazin-5-yl]methyl]piperidin-3-ol” (Bristol-Myers Squibb Company, priority 2006, dated 2011)
Blank lines part the entries; values can stand above or below the molecule they belong to.

What was measured:
[1] = Form conversion on heating (melt/recrystallization); type: physicochemical; details: melts at about 137° C.
Procedure: Differential scanning calorimetry (DSC) experiments were performed in a TA Instruments™ model Q1000 or 2920. The sample (about 2-6 mg) was weighed in an aluminum pan and recorded accurately recorded to a hundredth of a milligram, and transferred to the DSC. The instrument was purged with nitrogen gas at 50 mL/min. Data were collected between room temperature and 300° C. at 10° C./min heating rate. The plot was made with the endothermic peaks pointing down.

HER1 = HER1 (Homo sapiens, UniProt P00533); experiment: HER1 tyrosine kinase inhibition; type: biochemical
HER2 = HER2 (Homo sapiens, UniProt P04626); experiment: HER2 tyrosine kinase inhibition; type: biochemical
HER4 = HER4 (Homo sapiens, UniProt Q15303); experiment: HER4 tyrosine kinase inhibition; type: biochemical
VEGFR2 = VEGFR2 (Homo sapiens, UniProt P35968); experiment: VEGFR2 inhibition; type: biochemical
various tumor cell lines = experiment: Antiproliferative activity in tumor cell lines; type: cell-based
[2] = tested on: HER2 and HER1 driven tumor xenograft models; experiment: Anti-tumor efficacy in tumor xenograft models; type: in vivo
[3] = Relative thermodynamic stability of crystalline forms; type: physicochemical; details: temperatures from room temperature to 50° C.
[4] = Slurry conversion of mixtures of forms; type: physicochemical; details: slurried mixtures of N-1 and N-2 convert to Form N-2

Chain of HER4 (Q15303 26-1308): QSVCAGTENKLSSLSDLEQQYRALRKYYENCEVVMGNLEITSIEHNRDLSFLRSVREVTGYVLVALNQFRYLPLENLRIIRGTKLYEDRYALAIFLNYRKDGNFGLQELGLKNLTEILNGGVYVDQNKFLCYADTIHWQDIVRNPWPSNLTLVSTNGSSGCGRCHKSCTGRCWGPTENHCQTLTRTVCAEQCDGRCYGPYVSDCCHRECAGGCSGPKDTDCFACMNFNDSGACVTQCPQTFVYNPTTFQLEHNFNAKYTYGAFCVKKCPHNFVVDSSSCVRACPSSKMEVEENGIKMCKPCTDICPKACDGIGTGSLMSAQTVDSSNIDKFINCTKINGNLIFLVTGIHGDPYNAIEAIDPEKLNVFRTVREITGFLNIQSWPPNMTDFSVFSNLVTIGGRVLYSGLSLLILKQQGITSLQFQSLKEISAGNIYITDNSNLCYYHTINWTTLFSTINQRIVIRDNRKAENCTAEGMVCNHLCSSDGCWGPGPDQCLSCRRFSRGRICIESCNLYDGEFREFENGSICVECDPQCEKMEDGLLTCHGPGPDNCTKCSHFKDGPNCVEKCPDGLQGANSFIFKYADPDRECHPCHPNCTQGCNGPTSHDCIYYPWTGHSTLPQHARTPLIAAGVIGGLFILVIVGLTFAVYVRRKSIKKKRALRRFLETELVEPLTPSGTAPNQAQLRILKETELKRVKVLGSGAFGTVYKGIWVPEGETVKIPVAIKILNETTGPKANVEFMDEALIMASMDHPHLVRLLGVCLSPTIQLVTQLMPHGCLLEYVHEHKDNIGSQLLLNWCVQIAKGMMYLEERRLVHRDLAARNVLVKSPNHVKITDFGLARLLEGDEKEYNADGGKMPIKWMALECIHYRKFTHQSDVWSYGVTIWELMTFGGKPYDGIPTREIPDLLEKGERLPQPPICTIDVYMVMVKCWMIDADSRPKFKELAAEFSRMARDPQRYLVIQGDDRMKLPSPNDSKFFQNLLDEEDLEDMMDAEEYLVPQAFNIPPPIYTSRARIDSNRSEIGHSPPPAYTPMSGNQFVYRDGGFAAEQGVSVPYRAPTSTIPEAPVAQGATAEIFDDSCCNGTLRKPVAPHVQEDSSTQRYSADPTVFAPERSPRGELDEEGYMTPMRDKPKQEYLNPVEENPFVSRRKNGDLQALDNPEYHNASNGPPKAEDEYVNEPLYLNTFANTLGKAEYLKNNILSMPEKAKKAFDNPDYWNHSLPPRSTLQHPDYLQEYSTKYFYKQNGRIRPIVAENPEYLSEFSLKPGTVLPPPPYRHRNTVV
Chain of HER2 (P04626 23-1255): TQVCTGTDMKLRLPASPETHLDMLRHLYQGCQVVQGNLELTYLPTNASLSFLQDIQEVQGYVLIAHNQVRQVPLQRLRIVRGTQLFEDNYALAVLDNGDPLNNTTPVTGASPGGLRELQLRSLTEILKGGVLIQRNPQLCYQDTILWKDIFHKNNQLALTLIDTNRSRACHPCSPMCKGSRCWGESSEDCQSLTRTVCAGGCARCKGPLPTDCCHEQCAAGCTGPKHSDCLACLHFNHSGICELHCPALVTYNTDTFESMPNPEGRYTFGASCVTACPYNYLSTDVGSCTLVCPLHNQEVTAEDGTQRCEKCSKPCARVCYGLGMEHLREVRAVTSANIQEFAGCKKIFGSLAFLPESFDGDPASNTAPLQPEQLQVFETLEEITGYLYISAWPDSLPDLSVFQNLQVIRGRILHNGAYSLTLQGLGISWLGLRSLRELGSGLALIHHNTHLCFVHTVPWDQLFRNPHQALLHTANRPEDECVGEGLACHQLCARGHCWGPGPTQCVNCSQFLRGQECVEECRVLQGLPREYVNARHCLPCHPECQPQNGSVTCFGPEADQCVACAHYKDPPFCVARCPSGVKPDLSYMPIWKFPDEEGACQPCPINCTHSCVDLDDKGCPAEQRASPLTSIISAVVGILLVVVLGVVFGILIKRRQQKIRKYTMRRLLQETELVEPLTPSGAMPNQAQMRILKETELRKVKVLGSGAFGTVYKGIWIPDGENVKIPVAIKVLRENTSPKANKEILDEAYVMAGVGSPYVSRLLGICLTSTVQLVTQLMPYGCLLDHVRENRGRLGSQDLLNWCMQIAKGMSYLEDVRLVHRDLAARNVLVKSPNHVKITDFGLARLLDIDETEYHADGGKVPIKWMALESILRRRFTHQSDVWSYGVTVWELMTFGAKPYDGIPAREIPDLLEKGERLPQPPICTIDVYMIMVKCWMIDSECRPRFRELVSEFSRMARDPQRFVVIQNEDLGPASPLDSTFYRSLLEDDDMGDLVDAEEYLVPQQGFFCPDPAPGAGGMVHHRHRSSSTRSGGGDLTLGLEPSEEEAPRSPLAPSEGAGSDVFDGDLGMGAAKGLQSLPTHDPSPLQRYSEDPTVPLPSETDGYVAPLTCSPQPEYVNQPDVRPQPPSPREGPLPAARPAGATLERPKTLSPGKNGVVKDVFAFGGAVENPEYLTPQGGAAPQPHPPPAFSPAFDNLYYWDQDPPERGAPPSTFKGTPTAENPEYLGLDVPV
Chain of HER1 (P00533 25-1210): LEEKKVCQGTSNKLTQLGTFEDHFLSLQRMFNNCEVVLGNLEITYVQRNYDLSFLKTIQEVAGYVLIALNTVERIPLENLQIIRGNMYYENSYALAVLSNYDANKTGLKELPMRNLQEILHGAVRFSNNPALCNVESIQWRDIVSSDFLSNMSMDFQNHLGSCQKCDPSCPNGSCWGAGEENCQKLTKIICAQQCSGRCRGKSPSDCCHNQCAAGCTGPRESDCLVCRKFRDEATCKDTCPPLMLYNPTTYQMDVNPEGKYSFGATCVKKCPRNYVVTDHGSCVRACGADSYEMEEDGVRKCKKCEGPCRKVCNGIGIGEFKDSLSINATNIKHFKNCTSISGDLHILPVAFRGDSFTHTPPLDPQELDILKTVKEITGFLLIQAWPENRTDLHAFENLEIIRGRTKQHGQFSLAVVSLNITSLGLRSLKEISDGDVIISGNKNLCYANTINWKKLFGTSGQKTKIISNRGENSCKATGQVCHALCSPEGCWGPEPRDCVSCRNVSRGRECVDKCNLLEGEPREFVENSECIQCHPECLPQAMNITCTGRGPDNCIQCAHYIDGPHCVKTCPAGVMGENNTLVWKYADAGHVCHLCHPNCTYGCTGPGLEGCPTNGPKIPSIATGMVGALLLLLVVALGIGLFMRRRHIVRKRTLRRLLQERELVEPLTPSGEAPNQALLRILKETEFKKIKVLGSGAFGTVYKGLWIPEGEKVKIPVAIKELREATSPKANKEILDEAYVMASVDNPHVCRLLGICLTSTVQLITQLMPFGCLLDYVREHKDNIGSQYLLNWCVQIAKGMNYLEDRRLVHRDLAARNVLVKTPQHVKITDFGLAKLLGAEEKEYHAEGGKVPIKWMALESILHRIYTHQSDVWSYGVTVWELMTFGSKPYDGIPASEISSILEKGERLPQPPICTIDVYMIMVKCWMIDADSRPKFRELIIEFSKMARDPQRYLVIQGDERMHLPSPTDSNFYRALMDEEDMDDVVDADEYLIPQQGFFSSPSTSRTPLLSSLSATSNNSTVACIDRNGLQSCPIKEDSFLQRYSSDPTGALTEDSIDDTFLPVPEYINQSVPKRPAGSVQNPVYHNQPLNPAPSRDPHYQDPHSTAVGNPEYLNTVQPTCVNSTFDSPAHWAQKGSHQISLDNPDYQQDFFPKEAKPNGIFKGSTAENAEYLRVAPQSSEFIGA
Chain of VEGFR2 (P35968 20-1356, species assumed): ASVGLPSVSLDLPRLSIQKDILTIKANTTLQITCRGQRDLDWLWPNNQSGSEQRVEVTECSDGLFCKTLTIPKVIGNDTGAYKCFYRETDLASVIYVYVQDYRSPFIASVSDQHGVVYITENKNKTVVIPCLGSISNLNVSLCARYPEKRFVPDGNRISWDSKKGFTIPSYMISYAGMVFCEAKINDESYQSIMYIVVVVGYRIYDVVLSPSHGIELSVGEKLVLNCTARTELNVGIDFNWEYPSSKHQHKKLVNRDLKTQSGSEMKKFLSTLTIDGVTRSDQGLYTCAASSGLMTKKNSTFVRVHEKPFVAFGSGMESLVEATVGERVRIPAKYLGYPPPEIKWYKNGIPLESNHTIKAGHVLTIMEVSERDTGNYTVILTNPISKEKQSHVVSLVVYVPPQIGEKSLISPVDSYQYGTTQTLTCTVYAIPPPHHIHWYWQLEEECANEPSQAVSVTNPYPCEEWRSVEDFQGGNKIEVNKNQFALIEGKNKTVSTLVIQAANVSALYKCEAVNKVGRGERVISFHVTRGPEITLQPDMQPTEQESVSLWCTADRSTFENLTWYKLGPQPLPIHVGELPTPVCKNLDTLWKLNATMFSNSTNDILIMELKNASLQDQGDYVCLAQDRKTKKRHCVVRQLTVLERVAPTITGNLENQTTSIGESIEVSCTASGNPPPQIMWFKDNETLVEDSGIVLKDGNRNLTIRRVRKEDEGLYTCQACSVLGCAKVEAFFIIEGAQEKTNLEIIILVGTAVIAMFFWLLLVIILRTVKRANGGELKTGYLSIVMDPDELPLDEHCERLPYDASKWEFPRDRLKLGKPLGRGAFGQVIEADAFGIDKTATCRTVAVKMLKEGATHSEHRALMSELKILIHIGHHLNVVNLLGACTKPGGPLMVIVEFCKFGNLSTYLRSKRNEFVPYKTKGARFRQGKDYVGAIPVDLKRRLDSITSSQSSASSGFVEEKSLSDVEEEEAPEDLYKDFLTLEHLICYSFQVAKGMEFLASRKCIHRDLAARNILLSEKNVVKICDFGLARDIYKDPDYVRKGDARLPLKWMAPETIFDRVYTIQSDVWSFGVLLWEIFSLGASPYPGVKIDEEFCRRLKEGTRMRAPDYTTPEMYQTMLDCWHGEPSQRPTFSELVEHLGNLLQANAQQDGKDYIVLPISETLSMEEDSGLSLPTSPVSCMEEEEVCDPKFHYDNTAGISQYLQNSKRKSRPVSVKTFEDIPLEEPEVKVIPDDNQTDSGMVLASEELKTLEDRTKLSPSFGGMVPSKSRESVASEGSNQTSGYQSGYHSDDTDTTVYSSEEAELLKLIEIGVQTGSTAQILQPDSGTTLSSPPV

solid form conversion after melting [1]: recrystallizes as Form N-2
SMILES: COc1cccc(Nc2ncnn3ccc(CN4CC[C@@H](N)[C@H](O)C4)c23)c1 [Form N-1, (3R,4R)-4-amino-1-[[4-[(3-methoxyphenyl)amino]pyrrolo[2,1-f][1,2,4]triazin-5-yl]methyl]piperidin-3-ol]

inhibition of HER1 (HER1): potent inhibitor
inhibition of HER2 (HER2): potent inhibitor
inhibition of HER4 (HER4): potent inhibitor
inhibition of VEGFR2 (VEGFR2): potent inhibitor
SMILES: COc1cccc(Nc2ncnn3ccc(CN4CC[C@@H](N)[C@H](O)C4)c23)c1 [Compound I, (3R,4R)-4-amino-1-[[4-[(3-methoxyphenyl)amino]pyrrolo[2,1-f][1,2,4]triazin-5-yl]methyl]piperidin-3-ol]
antiproliferative activity (various tumor cell lines): broad antiproliferative activity
anti-tumor efficacy [2]: excellent anti-tumor efficacy

stability relationship from slurried mixtures of N-1 and N-2 [4]: monotropically more stable
SMILES: COc1cccc(Nc2ncnn3ccc(CN4CC[C@@H](N)[C@H](O)C4)c23)c1 [Form N-2, (3R,4R)-4-amino-1-[[4-[(3-methoxyphenyl)amino]pyrrolo[2,1-f][1,2,4]triazin-5-yl]methyl]piperidin-3-ol]
thermodynamic stability relative to other form [3]: more thermodynamically stable than Form N-1
